Test results taken from paper PMC5669199, “CM352 Reduces Brain Damage and Improves Functional Recovery in a Rat Model of Intracerebral Hemorrhage” (Journal of the American Heart Association: Cardiovascular …, 2017).

Key:
[1] = system: collagenase‐induced mouse model of ICH; parameters: method as in PMID 15800021; conditions: 100 mg/kg intraperitoneally for 48 hours (not with 1 mg/kg); cited from earlier work
MMP‐10 = system: MMP‐10; parameters: method as in PMID 25686022; conditions: previously reported; read-out: MMP Inhibitory Activity (IC50), MMP‐10; cited from earlier work
MMP‐7 = target: T1, MMP‐7 (Homo sapiens, UniProt P09237); experiment: MMP enzyme activity assay; type: biochemical
T1 construct: GenScript (contract testing)
T1 sequence (P09237 95-267): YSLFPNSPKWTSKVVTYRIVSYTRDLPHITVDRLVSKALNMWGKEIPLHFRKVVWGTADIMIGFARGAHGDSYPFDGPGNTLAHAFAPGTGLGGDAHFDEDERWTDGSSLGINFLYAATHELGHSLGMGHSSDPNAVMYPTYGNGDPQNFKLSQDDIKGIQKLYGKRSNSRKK
Method: Protease stock solutions (10 mmol/L) were diluted with assay buffer to make final test solutions containing no more than 2.0% DMSO. The samples were dispensed into plates; substrate was added and read with PHERAstar PLUS (BMG Labtech, Ortenberg, Germany) plate reader.

MMP‐3 = system: MMP‐3; parameters: method as in PMID 25686022; conditions: previously reported; read-out: MMP Inhibitory Activity (IC50), MMP‐3; cited from earlier work
MMP‐12 = target: T2, MMP‐12 (Homo sapiens, UniProt P39900); experiment: MMP enzyme activity assay; type: biochemical; conditions: read-out: MMP Inhibitory Activity (IC50), MMP‐12
T2 construct: GenScript (contract testing)
T2 sequence (P39900 106-470, species assumed): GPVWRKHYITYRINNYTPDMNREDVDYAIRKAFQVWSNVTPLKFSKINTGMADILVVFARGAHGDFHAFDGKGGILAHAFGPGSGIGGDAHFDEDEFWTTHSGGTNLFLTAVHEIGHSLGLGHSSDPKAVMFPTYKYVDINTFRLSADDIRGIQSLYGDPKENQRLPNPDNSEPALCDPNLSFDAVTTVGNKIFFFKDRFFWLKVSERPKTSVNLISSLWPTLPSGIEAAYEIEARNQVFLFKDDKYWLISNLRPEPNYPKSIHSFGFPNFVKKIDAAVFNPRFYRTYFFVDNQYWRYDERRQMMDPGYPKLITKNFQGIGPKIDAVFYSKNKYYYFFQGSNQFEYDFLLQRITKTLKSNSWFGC
Method: […]. Protease stock solutions (10 mmol/L) were diluted with assay buffer to make final test solutions containing no more than 2.0% DMSO. The samples were dispensed into plates; substrate was added and read with PHERAstar PLUS (BMG Labtech, Ortenberg, Germany) plate reader.

[2] = system: mouse model of warfarin‐associated ICH; parameters: method as in PMID 21127298; conditions: cited from earlier work

Row | SMILES | lesion volume and neurological outcome [1] | IC50 (MMP‐10) [nM] | IC50 (MMP‐7) [nM] | IC50 (MMP‐3) [nM] | IC50 (MMP‐12) [nM] | effect on edema [2]
1 | CNC(=O)[C@H](Cc1c[nH]c2ccccc12)NC(=O)[C@@H](CC(=O)NO)CC(C)C [GM6001] | decrease in lesion volume and improved neurological outcome | […] | 9 | 20.7 | 1.2 | –
2 | NC[C@H]1CC[C@H](C(=O)O)CC1 [TXA, tranexamic acid] | – | – | – | – | – | exacerbates edema
